# According to patent US20230355613A1, “METHODS FOR TREATING PANCREATIC DUCTAL ADENOCARCINOMA” (HEALTH RESEARCH, INC., priority 2022, published 2023):
# Tests used:
# Panc1 cells [1] = assay: Cell cycle analysis (propidium iodide FACS); format: cell-based, human; settings: within 24 hours
# Experimental: (§1) Finally, we sought to determine how JTE-607-mediated depletion of RD histones led to defects in cell viability. As RD histones are required for cell cycle progression, we assessed the effects of JTE-607 on cell cycle distribution. […] In contrast, JTE-607 arrested Panc1 and MiaPaCa2 PDAC cells in S-phase of the cell cycle within 24 hours (FIGS. 7A and 7B). To corroborate the impact of CPSF3 knockdown on cell cycle, CPSF3 was transiently knocked-down with siRNA in Panc1 and HPNE cells (FIGS. 13D, 7C). CPSF3 knockdown induced cell cycle arrest in Panc1 cells with minimal effect on HPNE cells (FIGS. 7D and 7E). However, unlike CPSF3 inhibition-induced cell cycle arrest at S-phase, CPSF3 knockdown cells arrested at G2. […] To more specifically investigate the timing and extent of S-phase arrest upon JTE-607 treatment, BrdU incorporation was examined in a time-dependent manner (FIG. 7F). […] This is in support of previous reports where histone defects slow the progression of cells during S-phase. Therefore, JTE-607 destabilizes chromatin and attenuates PDAC cell proliferation through S-phase cell cycle arrest.
# (§2) Cell cycle analysis. Cells were trypsinized and resuspended in 1×PBS, then fixed with ice-cold 70% ethanol for 1 hour at −20° C. Cells were then washed with cold 1×PBS and incubated with RNaseA (200 μg/ml) at 37° C. for 1 hour. Propidium iodide (40 μg/ml) was then added, incubated for 1 hour in the dark and analyzed by FACS at 488 nm. Data were analyzed by FCS express software (v7.06.0015).
# HPNE cells [2] = assay: Cell cycle analysis (propidium iodide FACS); format: cell-based, human
# Experimental: as §1, §2
# MiaPaCa2 cells = assay: Cell cycle analysis (propidium iodide FACS); format: cell-based, human; settings: within 24 hours
# Experimental: as §1, §2
# HeLa-TI cells = assay: Silenced GFP reporter derepression (chromatin destabilization) by microscopy and flow cytometry; format: cell-based; settings: dose- and time-dependent
# Experimental: Therefore, a Micrococcal Nuclease (MNase) assay was performed to assess relative chromatin condensation. In this assay, protein-free DNA is digested by MNase, producing DNA fragmentation patterns that are indicators of whether chromatin is in a condensed or relaxed state. […] To assess chromatin destabilization in a living cell, the HeLa-TI cell line model that has a silenced GFP reporter within a heterochromatic region of the genome was utilized. […] Therefore, GFP expression in HeLa-TI cells was monitored upon JTE-607 treatment by both fluorescence microscopy and flow cytometry.
# [3] = test system: human acute myeloid leukemia (AML) and Ewing's sarcoma cells; settings: in vitro; cited from earlier work
# Panc1 cells [4] = assay: Histone transcriptional read-through by RT-qPCR; format: cell-based, human
# Source text: (§3) JTE-607 induces RD-histone read-through preferentially in PDAC cells. […] It was sought to validate this transcriptional read-through phenomena experimentally by RT-qPCR. Two RD- and two RI-histones that show differences beyond their 3′ end boundaries were picked for experimental validation (FIGS. 13A and 13B). PCR primers were designed to amplify different regions within and beyond the boundaries of the 3′-UTR (FIG. 13C). […] However, the effect of JTE-607 on transcriptional read-through in HPNE cells was minimal (FIG. 5A). […] Because stable long-term knockdown can force cells to adapt, it was asked whether short-term knockdown of CPSF3 can recapitulate JTE-607 effect on transcriptional read-through. […] Improperly processed histone mRNAs fail to be exported into the cytoplasm for translation, leading to decreased protein levels. […] Next, it was determined whether histone dysregulation might be transcriptionally mediated by dysregulation of transcription factors at the levels of APA or gene expression. MotifMap, an integrative genome-wide map of regulatory motif sites, was used to find putative transcription factors regulating expression of RD histones. 51 transcription factors that have strong binding sites (1000 bp upstream of transcription start site; FDR<0.05) within RD histone promoters (Table S3 (attached as a Large Table)) were found. However, these histone transcription factors are neither APA altered nor differentially expressed upon JTE-607 treatment (FIGS. 13G and 13H). Taken together, these findings indicate that JTE-607 decreases RD histone expression by promoting transcriptional read-through.
# (§4) RNA isolation and quantitative PCR. Cells were lysed with TRIzol reagent. RNA was isolated using Direct-zol RNA Miniprep. cDNA was synthesized using iScript cDNA Synthesis Kit. qPCR was conducted with SYBR Green PCR primers mixed with iTaq Universal SYBR Green Supermix and run on CFX connect systems (Bio-Rad). Data were analyzed in Microsoft Excel and graphed using GraphPad Prism (v 9.3.0).
# HPNE cells [5] = assay: Histone transcriptional read-through by RT-qPCR; format: cell-based, human
# Source text: as §3, §4
# PDAC cells = assay: BrdU incorporation assay; format: cell-based; settings: within 8 hours
# Experimental: as §1
# BrdU incorporation assay. […] Cells were analyzed by flow cytometry immediately and a compensation step was performed. Data were analyzed by FCS Express software (v7.06.0015).
# Panc1 cells [6] = assay: Western blot of histone protein levels; format: cell-based, human; settings: dose- and time-dependent
# [7] = early or late time points (2 h, 24 h)
compound,measurement,setting,value
CCOC(=O)[C@H](Cc1ccccc1)NC(=O)c1cc(Cl)c(OCCN2CCN(C)CC2)c(Cl)c1O [JTE-607],cell cycle arrest phase,Panc1 cells [1],S-phase
same,cell cycle distribution,HPNE cells [2],no impact on cell cycle distribution
same,cell cycle arrest phase,MiaPaCa2 cells,S-phase
same,GFP expression,HeLa-TI cells,induced GFP expression to levels comparable with CBL0137
same,apoptosis,[3],induces apoptosis
same,transcriptional read-through of RD histones,"Panc1 cells [4]; 24 h treatment, normalized to DMSO",up to −20 fold change
same,transcriptional read-through of RI histones,Panc1 cells [4]; [7],did not induce transcriptional read-through
same,transcriptional read-through of RD histones,HPNE cells [5]; 24 h treatment,minimal
same,transcriptional read-through of RI histones,HPNE cells [5]; [7],did not induce transcriptional read-through
same,cell cycle arrest phase (BrdU incorporation),PDAC cells,early to mid S-phase
same,H3 and H2B protein levels,Panc1 cells [6],reduced both H3 and H2B protein levels
